Patent publication US20220370543A1, “METHODS OF TREATMENT FOR MODIFYING HEMODYNAMICS” (EBI ANTI SEPSIS B.V., priority 2019, published 2022)
“Also recorded” adds a separate entry of the source. Where two headings read alike, the source gives them in different places. Peptide text beside a SMILES is read from it.

Legend:
[1] = Solubility measurements / aggregation points of AQGV salts
From the text: At first attempts were made to mix a solution of the free base and an acid in order to achieve a concentrated DMSO solution of the salt and subsequently dilute this in water in order to determine solubility. […] It was decided to determine the solubility of the salts required by dilution of known amount of salts (not soluble) till a clear solution is obtained.

[2] = test system: patients undergoing on-pump coronary artery bypass grafting (CABG); assay: EASI phase II study: safety, adverse events; type: in vivo, human
Protocol: During cardiac surgery, 180 patients received (double-blinded, placebo-controlled, randomized) 90 mg/kg/hour EA-230 or placebo. The primary endpoint was safety. Efficacy was assessed by immunomodulation (plasma interleukin (IL)-6 concentrations), renal function (glomerular filtration rate using iohexol and creatinine [GFRiohexol, eGFRMDRD] and the incidence of acute kidney injury [AKI, RIFLE criteria]), cardiovascular effects (fluid balance, vasoactive agents) and general outcome (length-of-stay).
A prospective, randomized, double-blind, placebo-controlled study was performed in which 180 elective patients, undergoing on-pump coronary artery bypass grafting, with or without concomitant valve surgery, were enrolled. Patients were randomized in a 1:1 ratio and received either EA-230, 90 mg/kg/hour, or a placebo. These were infused at the start of the surgical procedure until the end of the use of the cardiopulmonary bypass. The main focus in this first-in-patient study was on safety and tolerability of EA-230. The primary efficacy endpoint was the modulation of the inflammatory response by EA-230 quantified as the change in interleukin-6 plasma concentrations after surgery. A key secondary endpoint was the effect of EA-230 on renal function.
The present study was a single-center, prospective, double-blind, placebo-controlled, randomized, single-dose phase II study. It has an adaptive design to evaluate the safety and immunomodulatory effects of EA-230 in patients undergoing on-pump cardiac surgery for coronary artery bypass grafting (CABG) with or without concomitant valve surgery. 180 eligible patients were included and were randomized to receive either active or placebo treatment in a 1:1 ratio. This was a first-in-patient safety and tolerability study, of which the primary efficacy objective was to assess the immunomodulatory effects of EA-230. The key-secondary efficacy endpoint was the effect of EA-230 on renal function. This study was described in accordance with the Standard Protocol Items: Recommendations for Interventional Trial (SPIRIT) guidelines, and registered at clinicaltrials.gov under number NCT03145220.
(§1) Intravenous infusion of EA-230, 90 mg/kg/hour, or placebo, was initiated at the moment of first surgical incision using an automated infusion pump. Infusion rate was set at 250 ml/hour, and infusion was continued until cessation of the CPB, or after 4 hours of continuous infusion, whichever comes first.
All AEs were judged by the investigators with regard to severity (“mild, moderate, or severe”) according to Common Terminology Criteria for Adverse Events guidelines 4.030 and their perceived relation to the study drug (“definitely, probably, possibly, or unrelated/unlikely to be related”). SAEs or SUSARs include death, life-threatening disease, persistent and/or significant disability and/or incapacity, and hospitalization and/or prolongation of inpatient hospitalization.

[3] = EASI phase II study: pharmacokinetics; type: in vivo; settings: human; for Cmax: in vivo, iv, 90 mg/kg, Phase II trial, 90 mg/kg/hour i.v. infusion
Protocol: as §1

[4] = 90 mg/kg/hour i.v. during CABG surgery

CC(C)[C@H](NC(=O)CNC(=O)[C@H](CCC(N)=O)NC(=O)[C@H](C)N)C(=O)O [AQGV-citrate] (H-AQGV-OH)
Behaviour of highly concentrated solution ([1]; 0.9% NaCl, listed as Citric acid): does not crystallize or aggregate but tend to form a highly viscous solution
Behaviour of highly concentrated solution ([1]; 0.9% NaCl, listed as citric acid): remains clear but got very thick/viscous
Solubility in DMSO ([1]; free base mixed with acid in DMSO): did not dissolve in DMSO at all
Total amount dissolved (clear solution) ([1]; in 0.5 mL 0.9% NaCl): 2.75 mmol

CC(C)[C@H](NC(=O)CNC(=O)[C@H](CCC(N)=O)NC(=O)[C@H](C)N)C(=O)O [EA-230, AQGV] (H-AQGV-OH)
Adverse events compared with placebo [2, 4]: less (serious) adverse events and less mayor clinical adverse events
Patients suffering from (adverse) fluid retention compared with placebo [2, 4]: significantly less patients suffering from fluid retention; also recorded: significant reduction of adverse fluid retention
AE of mild intensity: (%) of patients ([2]; EASI-study, N = 91): (83.5) %
AE of mild intensity: e (number of events) ([2]; EASI-study, N = 91): 188
AE of mild intensity: n (number of patients experiencing the event) ([2]; EASI-study, N = 91): 76
AE of moderate intensity: (%) of patients ([2]; EASI-study, N = 91): (24.2) %
AE of moderate intensity: e (number of events) ([2]; EASI-study, N = 91): 23
AE of moderate intensity: n (number of patients experiencing the event) ([2]; EASI-study, N = 91): 22
AE of severe intensity: (%) of patients ([2]; EASI-study, N = 91): (5.5) %
AE of severe intensity: e (number of events) ([2]; EASI-study, N = 91): 6
AE of severe intensity: n (number of patients experiencing the event) ([2]; EASI-study, N = 91): 5
Anemia: (%) of patients ([2]; EASI-study, N = 91): (5.5) %
Anemia: e (number of events) ([2]; EASI-study, N = 91): 5
Anemia: n (number of patients experiencing the event) ([2]; EASI-study, N = 91): 5
Any AE: (%) of patients ([2]; EASI-study, N = 91): (85.7) %
Any AE: n (number of patients experiencing the event) ([2]; EASI-study, N = 91): 78
Any SAE: (%) of patients ([2]; EASI-study, N = 91): (13.2) %
Any SAE: e (number of events) ([2]; EASI-study, N = 91): 23
Any SAE: n (number of patients experiencing the event) ([2]; EASI-study, N = 91): 12
Any SUSAR: (%) of patients ([2]; EASI-study, N = 91): (0) %
Any SUSAR: e (number of events) ([2]; EASI-study, N = 91): 0
Any SUSAR: n (number of patients experiencing the event) ([2]; EASI-study, N = 91): 0
Blood and lymphatic system disorders, Overall: (%) of patients ([2]; EASI-study, N = 91): (5.5) %
Blood and lymphatic system disorders, Overall: e (number of events) ([2]; EASI-study, N = 91): 6
Blood and lymphatic system disorders, Overall: n (number of patients experiencing the event) ([2]; EASI-study, N = 91): 5
Delirium: (%) of patients ([2]; EASI-study, N = 91): (5.5) %
Delirium: e (number of events) ([2]; EASI-study, N = 91): 5
Delirium: n (number of patients experiencing the event) ([2]; EASI-study, N = 91): 5
Fluid retention: (%) of patients ([2]; EASI-study, N = 91): (2.2) %
Fluid retention: e (number of events) ([2]; EASI-study, N = 91): 2
Gastrointestinal disorders, Overall: (%) of patients ([2]; EASI-study, N = 91): (23.1) %
Gastrointestinal disorders, Overall: e (number of events) ([2]; EASI-study, N = 91): 27
Gastrointestinal disorders, Overall: n (number of patients experiencing the event) ([2]; EASI-study, N = 91): 21
Hemorrhagic diathesis: (%) of patients ([2]; EASI-study, N = 91): (1.1) %
Hemorrhagic diathesis: e (number of events) ([2]; EASI-study, N = 91): 1
Hemorrhagic diathesis: n (number of patients experiencing the event) ([2]; EASI-study, N = 91): 1
Infections and infestations, Overall: (%) of patients ([2]; EASI-study, N = 91): (14.3) %
Infections and infestations, Overall: e (number of events) ([2]; EASI-study, N = 91): 15
Infections and infestations, Overall: n (number of patients experiencing the event) ([2]; EASI-study, N = 91): 13
Metabolism and nutrition disorders, Overall: (%) of patients ([2]; EASI-study, N = 91): (11) %
Metabolism and nutrition disorders, Overall: e (number of events) ([2]; EASI-study, N = 91): 10
Metabolism and nutrition disorders, Overall: n (number of patients experiencing the event) ([2]; EASI-study, N = 91): 10
Nausea: (%) of patients ([2]; EASI-study, N = 91): (16.5) %
Nausea: e (number of events) ([2]; EASI-study, N = 91): 15
Nausea: n (number of patients experiencing the event) ([2]; EASI-study, N = 91): 15
Psychiatric disorders, Overall: (%) of patients ([2]; EASI-study, N = 91): (9.9) %
Psychiatric disorders, Overall: e (number of events) ([2]; EASI-study, N = 91): 9
Psychiatric disorders, Overall: n (number of patients experiencing the event) ([2]; EASI-study, N = 91): 9
Renal and urinary disorders, Overall: (%) of patients ([2]; EASI-study, N = 91): (4.4) %
Renal and urinary disorders, Overall: e (number of events) ([2]; EASI-study, N = 91): 4
Renal and urinary disorders, Overall: n (number of patients experiencing the event) ([2]; EASI-study, N = 91): 4
Safety and tolerability ([2]; continuous infusion 90 mg/kg/hour up to 4 hours, elective CABG surgery): safe and No safety concerns emerged and well tolerated and showed an excellent safety profile
Time to clearance from the circulation when infusion is terminated [3]: 5 to 10 min
Cmax ([3]; read-out: Arterial Cmax, range): 12500 to 57500 ng/mL
Cmax ([3]; read-out: Mean arterial Cmax): 30500 ng/mL
Cmax ([3]; read-out: Mean venous Cmax): 68400 ng/mL
Cmax ([3]; read-out: Venous Cmax, range): 19600 to 113000 ng/mL

Nc1ncnc2c1ncn2[C@@H]1O[C@H](COP(=O)(O)O)[C@@H](O)[C@H]1O [adenosine-monophosphate]
Clear solution on adding 0.9% NaCl [1]: no clear solution could be obtained

O=C(O)/C=C\C(=O)O [maleic acid]
Solubility compared to AQGV-Ac ([1]; 0.9% NaCl): lower solubility

adenosine
Clear solution on adding 0.9% NaCl ([1]; 1 or 0.5 mmol salt, small amounts of 0.9% NaCl added): no clear solution could be obtained
